Test results as given in patent US20120134946A1, “COMPOSITION HAVING ANTIOXIDANT AND WHITENING EFFECTS CONTAINING A CONCENTRATE OF KOREAN RICE WINE” (AMOREPACIFIC CORPORATION, priority 2009, published 2012).

Experiments:
[1] = system: Mouse melanocytes (Mel-Ab cells); experiment: Melanin production inhibiting effect using mouse melanocytes; format: cell-based; conditions: 10 ppm, 3 consecutive days, absorbance at 400 nm
Experimental: Mouse melanocytes (Mel-Ab cells) derived from C57BL/6 mouse (Dooley, T. P. et al, Skin Pharmacol., 7, pp. 188-200) were cultured under the condition of 37° C. and 5% CO2 in DMEM containing 10% FBS, 100 nM 2-O-tetradecanoyphorbol-13-acetate and 1 nM cholera toxin. The cultured Mel-Ab cells were detached with 0.25% trypsin-EDTA and cultured in a 24-well plate, with 10^5 cells/well. From day 2, hydroquinone or the concentrated makgeolli of Example 1 (10 ppm each) was added for 3 consecutive days as test sample. Hydroquinone was used as positive control. Subsequently, after removing the medium and washing with PBS, the cells were suspended in 1 N sodium hydroxide and absorbance was measured at 400 nm. Based on the measurement result, melanin production inhibiting effect was calculated according to Equation 1.
Melanin production inhibiting effect (%)=100−(Absorbance of test sample/Absorbance of control×100) Equation 1

human skin = experiment: Whitening effect for human skin (UVB-induced tanning); format: in vivo; conditions: 1% topical on UVB-tanned upper arm, 10 weeks, 12 healthy men, colorimeter
Experimental: The whitening effect of the concentrated makgeolli of Example 1 for human skin was tested as follows.
12 healthy men were used as test subjects. An opaque tape with a hole of 1.5 cm diameter was attached on the upper arm of the test subject and UVB of about 1.5-2 times the minimal erythemal dose was irradiated to induce tanning.
After the UV radiation, 1% concentrated makgeolli of Example 1 (in 7:3 1,3-butylene glycol:ethanol solvent), 1% hydroquinone or 1% solvent (vehicle, negative control) was applied. […] The skin color was measured every week using the colorimeter CR2002 (Minolta, Japan).
The difference in skin color (ΔL*) at the initiation of application and after the completion of test was calculated according to Equation 2. Whitening effect was determined from the ΔL* of the sample-applied portion and the control portion. A ΔL* value of about 2 can be evaluated as distinct whitening effect and one of about 1.5 can be evaluated as positive whitening effect.
ΔL*=L*after the completion of test−L*at the initiation of application Equation 2

[2] = system: Human keratinocyte HaCaT cell line; experiment: ROS production inhibiting effect using fluorescent substances (DCFH-DA, UVB); format: cell-based; conditions: light or radiation study, HaCaT cells, UVB 30 mJ/cm^2, DCF fluorescence, read-out: ROS production inhibiting effect (% of control)
Experimental: Human keratinocyte HaCaT cell line was used. The cells were seeded on a 96-well black plate for fluorescence measurement, with 2.0×10^4 cells per well, cultured under the condition of 37° C. and 5% CO2 for 1 day using Dulbecco's modified Eagle's medium (DMEM, FBS 10%) containing penicillin/streptomycin, and then treated with the test sample. The cells were cultured under the condition of 37°C. and 5% CO2 for 1 day using serum (FBS)-free DMEM containing penicillin/streptomycin treated with the test sample as described in Table 2. After culturing for 24 hours, after washing with HEPES-buffered control salt solution (HCSS) to remove the remaining medium and adding 20 μM 2′,7′-dichlorodihydro-fluorescein diacetate (DCFH-DA, Molecular Probes, Inc., 100 μL), the cells were cultured under the condition of 37° C. and 5% CO2 for 20 minutes and then washed with HCSS. Then, after adding HCSS (100 μL) treated with the samples of different concentrations, the fluorescence intensity of the ROS, oxidized dichlorofluorescein (DCF), was measured using a fluorescence plate reader (Ex=485 nm, Em=530 nm). Then, after immediately and 3 hours after irradiation of UVB (30 mJ/cm^2), fluorescence intensity was measured using the fluorescence plate reader (Ex=485 nm, Em=530 nm). Trolox was used as control.

[3] = Antioxidant effect (DPPH test); format: biochemical; conditions: 100 μM DPPH, 37° C., 30 minutes, absorbance at 540 nm
Experimental: The antioxidant effect was determined as the concentration at which absorbance is decreased to 50% of control (IC50). 100 μM DPPH solution (in ethanol, 190 μL) was mixed with the concentrated makgeolli prepared in Example 1 or control (10 μL each). The resulting mixture was kept at 37° C. for 30 minutes and absorbance was measured at 540 nm. Trolox, which is widely used as synthetic antioxidant, was used as the control.

## Oc1ccc(O)cc1 [Hydroquinone]
[1]
  Melanin production inhibiting effect (%): 41.1%
Human skin
  Change in skin color (ΔL*): 1.90 ± 0.11

## Cc1c(C)c2c(c(C)c1O)CCC(C)(C(=O)O)O2 (stereo not shown) [Trolox]
[2]; 1 ppm
  activity at 1 ppm: 76.9%
[2]; 10 ppm
  activity at 10 ppm: 74.6%
[2]; 25 ppm
  activity at 25 ppm: 73.3%
[2]; 50 ppm
  activity at 50 ppm: 58.5%
[3]
  IC50 (concentration at which absorbance is decreased to 50% of control): 8.64 ppm
